# Entries after “also recorded” stand apart in the source; their conditions may differ.
# How the values were obtained:
# MAT-Lu cells [1] = assay: Boyden chamber motility assay, MAT-Lu cells; format: cell-based, rat; conditions: for Mat-Lu cells crossing filter in % of control +/− SEM: 4 hr, thrombin 200 nM, CDC 126 nM
# Procedure: Boyden Chamber Motility Assays. Disposable transwells (Coming Costar, Cambridge, Mass.) of 6.5 mm diameter and 8 μm pore size were coated with 5 μg/ml laminin on both sides. The membranes were washed twice with Hank's balanced salt solution (HBSS) and then pre-incubated with growth medium containing 10% fetal bovine serum. Trypsinized cells (5×10^4) were plated into the upper well. After 1 hour the upper chamber was washed twice with HBSS, filled with serum-free medium and moved to a new lower chamber, also filled with serum-free medium, with or without thrombin and/or 0.75 nM insulin-like growth factor-1 (IGF-1). After incubation for 4 hrs, cells on the membrane were fixed and stained with a Diff-Quick kit (Baxter Scientific Products). Cells on the upper side were scraped off, the membranes were removed, mounted onto microscope slides and analyzed. Each filter was scanned twice at right angles under the light microscope with a 16×phase contrast objective lens. A continuous series of 20 frames for each filter was digitized using a high-resolution CCD camera (Kodak) and stored in a Power Macintosh computer. The two most peripheral pairs of frames from each scan were deleted so that 12 frames were analyzed for each filter. Cells that had crossed the membrane were counted and tabulated. The sum of the cells counted in the twelve frames was an individual data point.
# protein kinase C (PKC) = assay: MARCKS phosphorylation by PKC in isolated GCPs; format: biochemical, rat; conditions: isolated growth cones
# From the text: FIG. 7A. Thrombin stimulates MARCKS phosphorylation in a 12-LOX-dependent manner. FIG. 7B. 12(S)-HETE stimulates MARCKS phosphorylation by PKC in isolated GCPs. […] Polypeptides were resolved by SDS-PAGE. MARCKS phosphorylation was quantified by phosphorimaging.
# 12-LOX [2] = conditions: Cho et al., 1991; cited from earlier work
# [3] = system: growth cones in cultures of rat cerebral cortex; assay: Growth cone collapse assay in cortical neuron culture; format: cell-based
# Procedure: Neuron Culture. Cerebral cortices were dissected from embryonic day 18 Sprague-Dawley rats, cut into explants of less than 1 mm^3 and cultured on either poly-D-lysine-coated coverglass (Assistent) or poly-D-lvsine-coated tissue culture plastic. After 24 hours in B27 neurobasal medium (NB) supplemented with 10% fetal bovine serum, cultures were switched to serum-free B27/NB. The cultures were incubated at 37° C. in 5% CO2 in air. Sprouting neurons were observed readily on day 1. On day 2 or 3, long neurites were present, and the cultures were used for collapse experiments.
# Actin Staining. After experimentation, cultures were fixed by slow infusion of fixative (4% paraformaldehyde in 0.1 M phosphate buffer, pH 7.4) into the culture dishes over 10 min (Pfenninger and Maylié-Pfenninger, J. Cell Biol. 89:53-546 (1981)). Thereafter, the fixative was removed by rinsing three times with phosphate-buffered saline (PBS) containing 1 mM glycine. Cultures were then blocked with PBS/1% bovine serum albumin (BSA) and permeabilized by incubation in 0.02% Triton X-100 for 5 min. After three washes in PBS/BSA, cultures were incubated with Texas-Red-conjugated phalloidin for 30 min. Unbound phalloidin was washed away by two PBS rinses, after which the coverglasses were mounted in Slow-Fade Light on microscope slides. Images were recorded on 35 mm film using a Zeiss Axiophot fluorescence microscope equipped with epiillumination.
# Growth Cone Collapse Assay. Prior to repellent factor treatment, some of the day 2-3 explant cultures were pre-incubated (at 37° C.) with inhibitor or vehicle control (dimethylsulfoxide or ethanol) for 30-60 min. Cultures were then challenged with a repellent factor or vehicle control for 1-30 min. In some experiments, live cultures were photographed with a Zeiss IM 35 inverted photo microscope equipped with a stage heater, while in others cultures were fixed (as above) after 7 minutes of repellent factor treatment. Growth cone collapse was assessed quantitatively in aldehyde-fixed cultures by grading the degree of collapse in a large number of randomly selected growth cones.
# MAT-Lu cells [4] = assay: Pseudopod morphometry (pseudopod length assay), MAT-Lu cells; format: cell-based, rat
# Procedure: Pseudopod Morphometry. To study the effects of various agents on pseudopods on a short-term basis, we measured pseudopod lengths. Cells plated in 35-mm diameter dishes at low density (1×10^4 per dish) were incubated overnight, tie medium was changed, and the experiments were run four hours later. First, cultures were shifted to serum-free medium, which was replaced one hour later by serum-free medium with or without the various agents (thrombin, AA or HETEs). Care was taken to avoid heat and light inactivation of the eicosanoids. Culture dishes were placed on a Zeiss inverted microscope equipped with a heated stage and viewed with a 16×phase contrast objective lens. Randomly selected fields of the cultures, containing generally about 20 cells each, were recorded, digitized and stored in the computer at the onset of the experiment and at different times thereafter.
# In some cases, individual cells were monitored over different periods of time immediately after introduction of the reagent, either by mixing it into the medium or by applying it locally to one end of the cell. Local application was done with a “puffer” system that expels microliter amounts of the desired solution from a micromanipulator-controlled micropipette tip. Cell morphology was recorded, and the captured images were analyzed with a Power Macintosh computer using NIH Image. Cell process length was measured from the center of the nucleus to the end of the process. Characterization of the frequencies of pseudopod lengths, at a fixed time for each of a sequence of concentrations of reagent, utilized a gamma regression model with an inverse quadratic linear predictor (McCullagh and Nelder, Generalized Linear Models 2d ed., pp. 291-292 (Chapman & Hall, 1989), separately fit to each concentration data set. Although no formal goodness-of-fit tests were carried out, in virtually every case there was good visual representation of the pattern of response (see FIG. 14). Most data, however, are shown as whisker-box plots, where the center point represents the 50%, the ends of the box the […] and 75%, and the “whiskers” the 5% and 95% quantiles (e.g., FIG. 11). Statistical comparisons of pseudopod lengths for different treatments were done by standard non-parametric techniques (Wilcoxon Rank Sum or Kruskal-Wallis Tests), as judged appropriate. Polynomial curve fittings were done by standard least-squares techniques. Statistical analyses and graphing were done with the use of SAS procedures: Reg, Phreg, Nparlway and Plot (SAS institute Inc., Cary, N.C.).
# 12-Lox [5] = assay: Eicosanoid (HETE) generation in GCPs; format: biochemical, rat
# Procedure: Eicosanoid Assays. Eicosanoid production in GCPs was measured by metabolic labelling from ^14C-AA or ^14C-AA-PC or by mass spectrometric detection. […] To measure Lox activity directly, without PLA2 involvement, ^3H-AA was the substrate of choice. Reactions were stopped by the addition of chloroform/methanol as for the phospholipase assays. Reaction products were extracted as described by Birkle et al., Neuromethods, vol. 7, pp.227-244 (Humana Press, N.J. 1988), spotted on pre-activated si gel 60 TLC plates, and the plates developed in the upper phase of ethyl acetate/isooctane/acetic acid/water (100:60:20:100). AA and HETEs were identified by co-migration with standards. Appropriate bands were counted by liquid scintillation spectrometry.
# For mass-spectrometric (MS) identification of HETEs, two different strategies were pursued:
# (1) the appropriate bands from non-labelled samples (PC substrate) were scraped from the TLC plate into ether/methanol (9:1) and stored under N2 at −20° C. Authentic 12(S)-HETE, run alongside in the same manner, was used as a standard. Just prior to analysis, samples were passed over an SPE filter to eliminate silica particles, dried under argon, resuspended in 500 μl ethanol, and injected (at 3 μl/min) into a Finnigan LCQ quadrupole ion trap mass spectrometer (Finnigan MAT, San Jose, Calif.) equipped with an electrospray ionization source. All spectra were acquired at a capillary temperature of 80° C., and ion guide voltages were tuned to maximize the abundance of the deprotonated ion species [M-H]^− in negative mode. In order to generate a spectrum, typically 100 single scans were averaged.
# (2) For the other strategy (liquid chromatography/tandem MS, LC/MS^2), the reaction substrate consisted of 3.5 μM AA, with the addition of 3.5 μM deuterated AA (AA-D8) plus 1 μCi ^3H-AA to track reaction products by mass and radioactivity, respectively. Reactions were stopped with ice-cold ethanol, the mixtures kept overnight at −20° C. under N2, and the proteins spun out The supernatants were diluted with H2O and loaded onto 1-ml C18 Sep-Pak columns (Varian). After washing with H2O, eicosanoid was eluted with 2 ml methanol. These samples were resolved by reverse-phase HPLC, and the eluted fractions analyzed by tandem MS on-line (MacMillan and Murphy, 1995). Collision-induced decomposition of HETE isomers produced characteristic fragments that were identified at the second MS stage.
# protein kinase C = conditions: Kobayashi et al. 1989; cited from earlier work
compound,measurement,setting,value
"N#CC(=Cc1ccc(O)c(O)c1)C(=O)OCC=Cc1ccccc1 [CDC, cinnamyl-3,4-dihydroxy-α-cyanocinnamate]",effect of LOX inhibitor on thrombin inhibition of migration,"MAT-Lu cells [1]; CDC with thrombin, Table 1",reverses the effect of thrombin
same,Mat-Lu cells crossing filter in % of control +/− SEM,MAT-Lu cells [1]; Control column (no IGF-1),97.5 +/− 11.0 % of control
same,Mat-Lu cells crossing filter in % of control +/− SEM,MAT-Lu cells [1]; IGF-1 (0.75 nM),118 +/− 10.4 % of control
same,effect of inhibitor on thrombin-stimulated MARCKS and GAP43 phosphorylation,protein kinase C (PKC),blocks phosphorylation
same,IC50,12-LOX [2],0.063 µM
same,effect of CDC pretreatment on 12(S)-HETE-induced collapse,[3]; 12(S)-HETE 10^−7M,is not affected
same,effect of inhibitor pretreatment on thrombin- or TRAP-induced growth cone collapse,"[3]; CDC 10 μM, indomethacin 25 μM, pretreatment 30-45 min",inhibits the thrombin effect on growth cones; also recorded: partially inhibits collapse; also recorded: almost complete inhibition of this effect
same,effect of inhibitor pretreatment on AA-induced pseudopod shortening,"MAT-Lu cells [4]; 15 min pretreatment, indomethacin 10 ηm, NDGA 25 μM, CDC 63 and 126 nM",blocked the AA effect completely; also recorded: reversed the AA effect; also recorded: reversed to control levels
same,effect of agent alone on pseudopod length,MAT-Lu cells [4]; typically 15 min exposure,seemed to cause pseudopod elongation
same,effect of inhibitor on thrombin-stimulated HETE production from AA,12-Lox [5]; 3H-AA substrate,strongly inhibited
same,effect on thrombin-stimulated HETE levels,"12-Lox [5]; 14C-AA-PC substrate, CDC 0.156 μM",reduces thrombin-stimulated HETE levels to below control
calphostin C,effect of inhibitor on thrombin-stimulated MARCKS and GAP43 phosphorylation,protein kinase C (PKC),blocks phosphorylation
same,IC50,protein kinase C,0.05 µM
same,effect of PKC inhibitor pretreatment on 12(S)-HETE-triggered pseudopod withdrawal,"MAT-Lu cells [4]; 12(S)-HETE 10^−10M, calphostin 50 and 100 nM, 15 min pretreatment",blocks pseudopod retraction; also recorded: completely inhibited pseudopod withdrawal

# Source: patent publication US6566047B1, “Method for identifying neurite-growth promoting agents” (The Regents of the University of Colorado, priority 1998, dated 2003)
